Laboratory results: patent US20100183600A1, “RAF Inhibitors and Their Uses” (ARQULE, INC., priority 2008, published 2010)

Columns and labels:
mutant B-RAF = target: T1, mutant B-RAF (Homo sapiens, UniProt P15056, V600E); test: Measurement of RAF activity (MEK-1 phosphorylation); assay type: biochemical; conditions: 50 μM ATP, MEK-1 substrate; read-out: Mut-B-Raf IC50
T1 construct: purchased Upstate (Charlottesville, Va.)
Experimental: Materials: The RAF kinases and the anti-phospho MEK1/2 antibody were from Upstate (Charlottesville, Va.). The RAF substrate used was full length N-terminal GST-MEK-1, which was expressed in E. coli and purified in-house by HPLC. All proteins were aliquoted and stored at −80° C. Superblock™ in phosphate buffered saline (PBS) blocking reagent was form Pierce (cat. #37515). ATP was from Roche (cat. # 19035722). Alkaline Phosphatase-tagged goat anti-rabbit antibody was from Pierce (cat. # 31340).
Methods: All RAF biochemical assays were performed using an assay buffer containing 20 mM MOPS, 5 mM EGTA, 37.5 mM MgCl2, 1 mM DTT and 50 μM ATP. There was 6.25 ng/well mutant B-RAF and 7.5 ng/well MEK-1 in the final assay conditions. Compounds were serially diluted in assay buffer containing 1% DMSO and 20 μl of test compound at a concentration 3-fold more than the final concentration, and were added to a polypropylene V-well reaction plate. Vehicle control wells received buffer only with DMSO at equivalent concentrations to the test wells. […] These reaction plates were incubated at room temperature for 30 minutes. Capture of MEK-1 was initiated by transferring 50 μl of the reaction mixture to a Nunc Maxisorp™ microplate that is designed for non-specific protein capture. After 30 minute capture of MEK-1 at room temperature, this plate was washed with TBST (6×200 μL/well) to fully terminate the reaction. The plate was then blocked for 1 hour by the addition of 100 μl/well of Superblock™ in phosphate buffered saline (PBS) blocking reagent. Plate was again washed with TBST (6 times with 200 μl/well), followed by the addition of 70 μl/well of Upstate anti-phospho MEK ½ diluted 1:1000 in Pierce Superblock (PBS). After a 60 minute incubation, this plate was washed with TBST (6 times with 200 μl/well), and 70 μl of the secondary antibody (Pierce Alkaline Phosphatase tagged goat anti-rabbit) prepared at 1:4000 in Superblock, were added. After a 45 minute incubation at room temperature, the wells of the microplate were washed with TBST (6 times with 200 μl/well), and thereafter 100 μl/well of Attophos™ fluorescent alkaline phosphatase substrate was added according to the manufacturer's instructions (JBL Scientific). Fluorescence was read on a Perkin Elmer Envision multilabel reader, using the following filters: Excitation Filter: CFP430 nM, Emission Filter: Emission Filter 579 nM.

Kato111 = test: Cell growth inhibition assay (MTS); assay type: cell-based; conditions: Homo sapiens; Kato111, gastric carcinoma
Experimental: (§1) Compounds of the present invention have been tested for activity against a variety of cancer cell lines. The ability of compounds to inhibit cell growth in this assay is correlated with the reduction of dehydrogenase enzyme activity found in metabolically active cells.
(§2) Materials: A large variety of cancer cells from ATCC were maintained at 37° C., 5% CO2 in DMEM media supplemented with 10% fetal bovine serum, penicillin/streptomycin and fungizone (Invitrogen). NCM460 (Incell), a normal colon epithelial cell line, and human mammary epithelial cells (Cambrex) were maintained at 37° C., 5% CO2 in DMEM and HEBM media (Cambrex), respectively.
(§3) Methods: Test compounds were dissolved and diluted to 300× in DMSO then diluted 1:40 in DMEM. Cells were seeded into 96-well tissue culture plates at 1-5×10^3 per well and cultured at 37° C. for 24 h. Cells were incubated with test compounds for 72 hours followed by incubation with tetrazolium compound (3-(4,5-dimethylthiazol-2-yl)-5-(3-carboxymethoxyphenyl)-2-(4-sulfophenyl)-2H-tetrazolium, inner salt; MTS) and the electron coupling reagent, phenazine methosulfate (PMS) for 4 hr. […] The measurement of the absorbance of the formazan was assessed using an ENVISION™ (Perkin Elmer) microplate reader at 492 nm. The calculated IC50 value is the concentration of the test compound that causes a 50% decrease in the absorbance.

SK-OV-3 = test: Cell growth inhibition assay (MTS); assay type: cell-based; conditions: Homo sapiens; SK-OV-3, ovary
Experimental: as §1, §2, §3

CFPPAC-1 = test: Cell growth inhibition assay (MTS); assay type: cell-based; conditions: Homo sapiens; CFPPAC-1, pancreasductal adenocarcinoma; cystic fibrosis
Experimental: as §1, §2, §3

KG-1 = test: Cell growth inhibition assay (MTS); assay type: cell-based; conditions: Homo sapiens; KG-1, AML
Experimental: as §1, §2, §3

MCF-7 = test: Cell growth inhibition assay (MTS); assay type: cell-based; conditions: Homo sapiens, MCF7; MCF-7, breast adenocarcinoma
Experimental: as §1, §2, §3

SK-LMS-1 = test: Cell growth inhibition assay (MTS); assay type: cell-based; conditions: Homo sapiens; SK-LMS-1, leiomyosarcoma
Experimental: as §1, §2, §3

CAKI-2 = test: Cell growth inhibition assay (MTS); assay type: cell-based; conditions: Homo sapiens; CAKI-2, kidney
Experimental: as §1, §2, §3

CC5292 = test: Cell growth inhibition assay (MTS); assay type: cell-based; conditions: Homo sapiens; CC5292, MiT
Experimental: as §1, §2, §3

PANC-1 = test: Cell growth inhibition assay (MTS); assay type: cell-based; conditions: Homo sapiens; PANC-1, pancreas epithelioid carcinoma
Experimental: as §1, §2, §3

SW480 = test: Cell growth inhibition assay (MTS); assay type: cell-based; conditions: Homo sapiens; SW480, colon
Experimental: as §1, §2, §3

NCI-H460 = test: Cell growth inhibition assay (MTS); assay type: cell-based; conditions: Homo sapiens; NCI-H460, large cell lung carcinoma
Experimental: as §1, §2, §3

BDCM = test: Cell growth inhibition assay (MTS); assay type: cell-based; conditions: Homo sapiens, lymphoblast
Experimental: as §1, §2, §3

U937 = test: Cell growth inhibition assay (MTS); assay type: cell-based; conditions: Homo sapiens, U-937; U937, monocyte histocytic lymphoma
Experimental: as §1, §2, §3

DU145 = test: Cell growth inhibition assay (MTS); assay type: cell-based; conditions: Homo sapiens, DU-145; DU145, prostate
Experimental: as §1, §2, §3

HEC1A = test: Cell growth inhibition assay (MTS); assay type: cell-based; conditions: Homo sapiens, HEC-1-A, endometrial
Experimental: as §1, §2, §3

HCT-15 = test: Cell growth inhibition assay (MTS); assay type: cell-based; conditions: Homo sapiens; HCT-15, colon
Experimental: as §1, §2, §3

NCI-H520 = test: Cell growth inhibition assay (MTS); assay type: cell-based; conditions: Homo sapiens; NCI-H520, squamous cell lung carcinoma
Experimental: as §1, §2, §3

786-O = test: Cell growth inhibition assay (MTS); assay type: cell-based; conditions: Homo sapiens, 786-0, kidney
Experimental: as §1, §2, §3

RT112 = test: Cell growth inhibition assay (MTS); assay type: cell-based; conditions: RT-112; RT112, human urinary bladder cell carcinoma
Experimental: as §1, §2, §3

ASPC-1 = test: Cell growth inhibition assay (MTS); assay type: cell-based; conditions: Homo sapiens, ASPC1; ASPC-1, pancreas
Experimental: as §1, §2, §3

T1 sequence (P15056 whole entry V600E): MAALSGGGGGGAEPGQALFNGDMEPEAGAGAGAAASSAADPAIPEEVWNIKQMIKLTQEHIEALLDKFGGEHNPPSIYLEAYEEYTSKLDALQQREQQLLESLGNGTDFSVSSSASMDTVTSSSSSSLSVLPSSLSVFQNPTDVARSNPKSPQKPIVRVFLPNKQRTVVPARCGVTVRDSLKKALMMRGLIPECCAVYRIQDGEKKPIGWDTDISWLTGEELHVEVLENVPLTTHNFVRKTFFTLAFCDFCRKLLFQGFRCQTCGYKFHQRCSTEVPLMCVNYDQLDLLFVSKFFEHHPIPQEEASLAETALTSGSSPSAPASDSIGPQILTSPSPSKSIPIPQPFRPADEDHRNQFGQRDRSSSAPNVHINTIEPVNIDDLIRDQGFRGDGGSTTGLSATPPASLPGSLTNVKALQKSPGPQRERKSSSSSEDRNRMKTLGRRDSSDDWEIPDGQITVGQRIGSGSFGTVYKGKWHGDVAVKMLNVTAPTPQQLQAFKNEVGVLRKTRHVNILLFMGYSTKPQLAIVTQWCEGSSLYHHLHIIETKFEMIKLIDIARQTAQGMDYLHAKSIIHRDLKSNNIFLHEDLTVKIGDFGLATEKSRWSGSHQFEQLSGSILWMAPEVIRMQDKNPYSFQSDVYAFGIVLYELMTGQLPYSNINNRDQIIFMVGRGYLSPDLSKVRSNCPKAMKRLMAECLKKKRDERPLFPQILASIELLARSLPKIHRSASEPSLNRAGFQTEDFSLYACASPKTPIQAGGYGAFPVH

## Cn1ccc(S(=O)(=O)N2CCC[C@@H](Nc3nccc(-c4c(-c5cccc(O)c5)nc5occn45)n3)C2)n1 [Compound 17, (R)-3-(5-(2-(1-(1-methyl-1H-pyrazol-3-ylsulfonyl)piperidin-3-ylamino)pyrimidin-4-yl)imidazo[2,1-b]oxazol-6-yl)phenol]
Mutant B-RAF
  IC50: 0.008 µM

## Cn1ccc(S(=O)(=O)N2CCC[C@@H](Nc3nccc(-c4c(-c5cccc(OCOP(=O)(O)O)c5)nc5occn45)n3)C2)n1 [Compound 19, (R)-(3-(5-(2-(1-(1-methyl-1H-pyrazol-3-ylsulfonyl)piperidin-3-ylamino)pyrimidin-4-yl)imidazo[2,1-b]oxazol-6-yl)phenoxy)methyl dihydrogen phosphate]
Mutant B-RAF
  IC50: 2.92 µM
Kato111
  GI50: 6.11 µM
SK-OV-3
  GI50: 13.7 µM
CFPPAC-1
  GI50: 11.9 µM
KG-1
  GI50: 30.8 µM
MCF-7
  GI50: 12.5 µM
SK-LMS-1
  GI50: 15.2 µM
CAKI-2
  GI50: 26.2 µM
CC5292
  GI50: 8.2 µM
PANC-1
  GI50: 29.7 µM
SW480
  GI50: 8.27 µM
NCI-H460
  GI50: 19.3 µM
BDCM
  GI50: 32.7 µM
U937
  GI50: 20.2 µM
DU145
  GI50: 9.62 µM
HEC1A
  GI50: 2.72 µM
HCT-15
  GI50: 23.2 µM
NCI-H520
  GI50: 20.2 µM
786-O
  GI50: 18.2 µM
RT112
  GI50: 1.92 µM
ASPC-1
  GI50: 6.33 µM
